Measured values reported in patent US20230348454A1, “COMPOUNDS AS MODULATORS OF BIS-PHOSPHOGLYCERATE MUTASE FOR THE TREATMENT OF SICKLE CELL DISEASE” (Genzyme Corporation, priority 2020, published 2023).
Read-outs that look alike come from different tables or passages of the source.

Legend:
hBPGM = target: T1, hBPGM (Homo sapiens, UniProt P07738); experiment: BPGM synthase assay; assay type: biochemical
T1 sequence (P07738 1-259): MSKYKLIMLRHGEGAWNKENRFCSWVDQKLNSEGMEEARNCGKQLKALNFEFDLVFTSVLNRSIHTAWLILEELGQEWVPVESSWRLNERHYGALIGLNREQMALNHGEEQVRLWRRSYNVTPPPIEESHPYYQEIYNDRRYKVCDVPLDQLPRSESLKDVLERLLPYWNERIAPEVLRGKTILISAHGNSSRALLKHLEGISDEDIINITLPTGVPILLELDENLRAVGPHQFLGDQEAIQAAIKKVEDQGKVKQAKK
Outline: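 The enzyme solution held 5 nM BPGM with 0.4 U/mL coupling GAPDH in Tris pH 7.4, 3.23 mM KH2PO4, 1 mM DTT, and compounds were pre-incubated 30 min at RT. Substrate solution (2 mM NAD, 20 μM 3PG, 800 μM GAP) reacted 60 min before a koningic acid quench. NADH fluorescence (360/460) and diaphorase/resazurin-derived resorufin (544/590) were read.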

[1] = target: T2, human Bisphosphoglycerate mutase (hBPGM) (Homo sapiens, UniProt P07738); experiment: BPGM phosphatase assay; assay type: biochemical
T2 sequence (P07738 1-259): T1 sequence (P07738 1-259)
Experimental: The following materials were used in this assay: Tris buffer (50 mM Tris, 0.01% Tween 20, pH 7.4); cyclohexylammonium salt of 2,3-BPG (stock solution of 500 mM in ultapure distilled water; human Bisphosphoglycerate mutase (hBPGM; stock solution of 110 μM in Standard Buffer); 3-Phosphoglyceric acid (3-PG; stock solution of 100 mM in ultrapure distilled water); 384-Well Polystyrene Plates (Fisherbrand™, Catalog No.: 12-566-625); BIOMOL GREEN REAGENT (Enzo life sciences, BML-AK111-0250); and 1 mM DMSO stock of exemplary compounds.
A 3-PG enzyme mix solution (final enzyme concentration 62.5 nM, 3-PG concentration at 50 µM, 14.5 uL) was added to onto a 384-well clear plate. Solutions of the test compounds were then added to the plate and the DMSO content was normalized across the plate. The plate was incubated at RT for 15 min. Next, the substrate 2,3-BPG (5 μL) was added to all the wells, and the plate was sealed and incubated for 24 hr at RT. After incubation, BIOMOL green dye (40 μL) was added to all the wells, the plate was shaken to mix, and the plate was incubated at RT for 20-30 min. Absorbance measurements were recorded at 620 nm.

[2] = Table 6, read-out: huBPGM: synthase Enzyme IC50
[3] = Table 6, read-out: huBPGM: phosphatase Enzyme EC50
[4] = Table 3, read-out: hBPGM Synthase IC50
[5] = Table 4, read-out: hBPGM Phosphatase EC50

Row | SMILES | IC50 (hBPGM; [2]) [nM] | EC50 [1, 3] [nM] | IC50 (hBPGM; [4]) [nM] | EC50 [1, 5] [nM]
1 | Cc1nc(CNC(=O)c2cccnn2)sc1-c1cccc(-c2cc(F)c(O)c(F)c2F)n1 [Example 164] | 680 | 550 | – | –
2 | Cc1nc(CNC(=O)c2cccnn2)sc1-c1csc(-c2cc(F)c(O)c(F)c2)n1 [Example 201] | 410 | 180 | – | –
3 | Cc1ccnc(OCc2nc(C)c(-c3cccc(-c4cc(F)c5nn[nH]c5c4)n3)s2)n1 [Example 153] | 81 | 60 | – | –
4 | COC(=O)NCc1nc(C)c(-c2csc(-c3ccc(O)c(F)c3F)n2)s1 [Example 190] | 4200 | 3300 | – | –
5 | CCc1cnc(OCc2nc(C)c(-c3cccc(-c4cc(F)c5nn[nH]c5c4F)n3)s2)nc1 [Example 144] | 330 | 40 | – | –
6 | Cc1nc(COc2ncccn2)sc1-c1cccc(-c2ccc(O)c(C#N)c2)n1 [Example 159] | 290 | 1800 | – | –
7 | COC(=O)NCc1nc(C)c(-c2csc(-c3ccc(-c4nnn[nH]4)cc3)n2)s1 [Example 205] | 340 | 440 | – | –
8 | COC(=O)NCc1nc(C)c(-c2csc(-c3ccc(C(=O)NS(=O)(=O)c4ccccc4)cc3)n2)s1 [compound 13] | 170 | 32 | 169 | 55
9 | COC(=O)NCc1nc(C)c(-c2csc(-c3ccc(C(=O)NS(C)(=O)=O)cc3)n2)s1 [Example 208] | 3100 | 16000 | – | –
10 | Cc1nc(COc2ncccn2)sc1-c1cccc(-c2cc(F)c3[nH]nnc3c2)n1 [Example 141] | 54 | 57 | – | –
11 | Cc1nc(CNc2ncccn2)sc1-c1cccc(-c2cc(F)c3nn[nH]c3c2)n1 [Example 155] | 44 | 40 | – | –
12 | Cc1nc(COc2ccccn2)sc1-c1csc(-c2cc(F)c3[nH]nnc3c2)n1 [Example 100] | 310 | 57 | – | –
13 | COC(=O)NCc1nc(C)c(-c2csc(-c3ccc(C(=O)NS(C)(=O)=O)c(O)c3)n2)s1 [Example 206] | 1400 | 1200 | – | –
14 | Cc1nc(COc2ncccn2)sc1-c1cccc(-c2ccc3nn[nH]c3c2)n1 [Example 131] | 510 | 570 | – | –
15 | Cc1nc(CNc2ncccn2)sc1-c1cccc(-c2cc(F)c(O)c(F)c2F)n1 [Example 168] | 220 | 130 | – | –
16 | Cc1nc(COCC(=O)O)sc1-c1csc(-c2cc(F)c(O)c(F)c2F)n1 [Example 99] | 4700 | 7800 | – | –
17 | Cc1nc(COc2ccccn2)sc1-c1csc(-c2cc3nn[nH]c3c(F)c2F)n1 [Example 176] | 3400 | 20 | – | –
18 | COC(=O)NCc1nc(C)c(-c2csc(-c3ccc(C(=O)Nc4nnn[nH]4)cc3)n2)s1 [Example 207] | 6500 | 8200 | – | –
19 | Cc1nc(COc2ncccn2)sc1-c1cccc(-c2cc(F)c3[nH]nnc3c2)c1 [Example 177] | 440 | 250 | – | –
20 | Cc1nc(COc2ncc(C(=O)O)cn2)sc1-c1cccc(-c2cc(F)c3nn[nH]c3c2F)n1 [Example 135] | 160 | 240 | – | –
21 | Cc1cnc(OCc2nc(C)c(-c3cccc(-c4cc(F)c5nn[nH]c5c4)n3)s2)nc1 [Example 152] | 40 | 30 | – | –
22 | Cc1nc(COc2ncccn2)sc1-c1cccc(-c2ccc(-c3noc(=O)[nH]3)cc2)n1 [compound 15] | 140 | 170 | – | 170
23 | Cc1nc(COc2ncccn2)sc1-c1cccc(-c2ccc(C(=O)NS(=O)(=O)c3ccccc3)cc2)n1 [Example 157] | 170 | 240 | – | –
24 | Cc1nc(COc2ncccn2)sc1-c1cccc(-c2cc(F)c(O)c(F)c2F)c1 [Example 148] | 1200 | 250 | – | –
25 | Cc1nc(COCC(=O)N2CCN(CCO)CC2)sc1-c1csc(-c2cc(F)c(O)c(F)c2F)n1 [Example 104] | 2300 | > 25000 | – | –
26 | Cc1nc(CNC(=O)c2cccnn2)sc1-c1csc(-c2cc(F)c(O)c(F)c2)c1 [Example 194] | 820 | 370 | – | –
27 | Cc1nc(COC(=O)N(C)C)sc1-c1cccc(-c2cc(F)c3nn[nH]c3c2F)n1 [Example 125] | 23 | 2700 | – | –
28 | Cc1nc(COc2ccccn2)sc1-c1csc(-c2cc(F)c(O)c(F)c2F)n1 [compound 11] | 510 | 190 | 511 | 190

Row | SMILES | IC50 (hBPGM; [2]) [nM] | EC50 [1, 3] [nM] | IC50 (hBPGM; [4]) [nM] | EC50 [1, 5] [nM]
29 | Cc1nc(COCC(=O)N(C)C)sc1-c1cccc(-c2cc(F)c(O)c(F)c2F)n1 [Example 170] | 1100 | 880 | – | –
30 | Cc1nc(CNc2ncccn2)sc1-c1csc(-c2cc(F)c(O)c(F)c2F)n1 [Example 165] | 92 | 110 | – | –
31 | Cc1nc(COC(=O)N(C)C)sc1-c1cccc(-c2cc(F)c3nn[nH]c3c2)n1 [Example 167] | 130 | 75 | – | –
32 | Cc1nc(COC(=O)N(C)C)sc1-c1csc(-c2cc(F)c(O)c(F)c2F)n1 [Example 137] | 230 | 200 | – | –
33 | COC(=O)NCc1nc(C)c(-c2csc(-c3cc(O)c(C#N)cc3F)c2)s1 [Example 189] | 980 | 310 | – | –
34 | Cc1nc(CNC(=O)C(C)(C)C)sc1-c1csc(-c2cc(F)c(O)c(F)c2)c1 [Example 197] | 3100 | 400 | – | –
35 | Cc1nc(COCC(=O)N2CCCC2)sc1-c1csc(-c2cc(F)c(O)c(F)c2F)n1 [Example 127] | 430 | 380 | – | –
36 | Cc1nc(COC(=O)N(C)C)sc1-c1cccc(-c2cc(F)c(O)c(F)c2F)n1 [Example 169] | 560 | 330 | – | –
37 | Cc1nc(COc2ncccn2)sc1-c1cccc(-c2cc[n+]([O-])cc2)n1 [Example 139] | > 25000 | > 25000 | – | –
38 | Cc1nc(COc2ccccn2)sc1-c1csc(-c2cc(F)c(O)c(F)c2)n1 [Example 192] | 1000 | 490 | – | –
39 | Cc1cnc(OCc2nc(C)c(-c3cccc(-c4cc(F)c5nn[nH]c5c4)n3)s2)nc1C [Example 136] | 200 | 70 | – | –
40 | Cc1nc(COc2ncccn2)sc1-c1cccc(-c2cc(F)c(O)c(F)c2F)n1 [Example 172] | 280 | 240 | – | –
41 | Cc1nc(CNc2ncccn2)sc1-c1cccc(-c2cc(F)c3nn[nH]c3c2F)n1 [Example 126] | 21 | > 25000 | – | –
42 | Cc1nc(COc2ncccn2)sc1-c1cccc(-c2ccc(C#N)c(O)c2)n1 [Example 158] | 240 | 530 | – | –
43 | Cc1nc(COc2ncccn2)sc1-c1csc(-c2cc(F)c(O)c(F)c2F)n1 [compound 10] | 130 | 310 | – | 310
44 | COc1cnc(OCc2nc(C)c(-c3cccc(-c4cc(F)c5nn[nH]c5c4)n3)s2)nc1 [Example 142] | 260 | 40 | – | –
45 | Cc1ccnc(OCc2nc(C)c(-c3cccc(-c4cc(F)c5nn[nH]c5c4F)n3)s2)n1 [Example 130] | 15 | 10000 | – | –
46 | Cc1nc(CNc2cccnn2)sc1-c1cccc(-c2cc(F)c3nn[nH]c3c2F)n1 [Example 95] | 25 | 25 | – | –
47 | Cc1nc(CNC(=O)C(C)CN(C)C)sc1-c1cccc(-c2cc(F)c3nn[nH]c3c2F)n1 (centres unmarked) [Example 138] | 960 | > 25000 | – | –
48 | Cc1nc(CNC(=O)N2CC(O)C2)sc1-c1csc(-c2cc(F)c(O)c(F)c2F)n1 [Example 97] | 1800 | 6900 | – | –
49 | Cc1nc(COC(=O)N2CCN(C)CC2)sc1-c1cccc(-c2cc(F)c3nn[nH]c3c2)n1 [Example 147] | 550 | 490 | – | –
50 | Cc1nc(COCC(=O)N(C)C)sc1-c1cccc(-c2cc(F)c3nn[nH]c3c2)n1 [Example 163] | 170 | 260 | – | –
51 | COC(=O)NCc1nc(C)c(-c2csc(-c3cc(F)c(O)cc3F)n2)s1 [Example 178] | 1700 | 1700 | – | –
52 | Cc1nc(COc2ncccn2)sc1-c1cccc(-c2ccc3nnc(O)n3c2)n1 [Example 151] | 1500 | 20000 | – | –
53 | COC(=O)NCc1nc(C)c(-c2csc(-c3cc(F)c4[nH]nnc4c3)n2)s1 [Example 214] | 180 | 96 | – | –
54 | COC(=O)NCc1nc(C)c(-c2csc(-c3cc(F)c(O)c(F)c3)n2)s1 [Example 191] | 1100 | 1600 | – | –
55 | COC(=O)NCc1nc(C)c(-c2csc(-c3cc(F)c(O)c(F)c3F)n2)s1 [Example 187] | 300 | 480 | – | –
